Data on 8 compounds can be found in patent US8901304B1, “Benzo[D]imidazole derivatives of piperidine and piperazine” (King Fahd University of Petroleum and Minerals, priority 2013, dated 2014).

Some results are limits rather than exact numbers.

As to `O=c1[nH]c2ccc(C3CCN(Cc4ccc(-c5ccccc5)cc4)CC3)cc2[nH]1` [5a, 5-(1-(biphenyl-4-ylmethyl)piperidin-4-yl)-1H-benzo[d]imidazol-2(3H)-one], the melting point is > 260 °C.

`O=c1[nH]c2ccc(C3CCN(Cc4cncc(-c5ccccc5)c4)CC3)cc2[nH]1` [5c, 5-(1-((5-phenylpyridin-3-yl)methyl)piperidin-4-yl)-1H-benzo[d]imidazol-2(3H)-one] showed a melting point of 236 to 237 °C.

Take `O=c1[nH]c2ccc(C3CCN(Cc4cncc(C5=CCCC5)c4)CC3)cc2[nH]1` [5f, 5-(1-((5-cyclopentenylpyridin-3-yl)methyl)piperidin-4-yl)-1H-benzo[d]imidazol-2(3H)-one]: the melting point is 249 to 250 °C. `O=c1[nH]c2ccc(N3CCN(Cc4ccc(-c5ccccc5)cc4)CC3)cc2[nH]1` [6a, 5-(4-(biphenyl-4-ylmethyl)piperazin-1-yl)-1H-benzo[d]imidazol-2(3H)-one]: the melting point was > 260 °C. The value for `O=c1[nH]c2ccc(N3CCN(CC4(F)C=CC(c5ccccc5)=CC4)CC3)cc2[nH]1` (centres unmarked) [6b, 5-(4-((4-Fluorobiphenyl-4-yl)methyl)piperazin-1-yl)-1H-benzo[d]imidazol-2(3H)-one] was > 260 °C. For `O=c1[nH]c2ccc(N3CCN(Cc4cncc(-c5ccc(F)cc5)c4)CC3)cc2[nH]1` [6d, 5-(4-((5-(4-fluorophenyl)pyridin-3-yl)methyl)piperazin-1-yl)-1H-benzo[d]imidazol-2(3H)-one], the melting point was 246 to 247 °C. The compound `O=c1[nH]c2ccc(N3CCN(Cc4cccc(C5=CCCC5)c4)CC3)cc2[nH]1` [6e, 5-(4-(3-cyclopentenylbenzyl)piperazin-1-yl)-1H-benzo[d]imidazol-2(3H)-one] registered a melting point of 244 to 245 °C. The compound `O=c1[nH]c2ccc(N3CCN(Cc4cncc(C5=CCCC5)c4)CC3)cc2[nH]1` [6f, 5-(4-((5-cyclopentenylpyridin-3-yl)methyl)piperazin-1-yl)-1H-benzo[d]imidazol-2(3H)-one] returned a melting point of 255 to 256 °C.

In general, melting point refers to the temperature of the solid-liquid transition.
